For one assay, the system named is weaned piglets. Kind of assay: Effects of furancarboxylic acids on performance of weaned piglets. It is filed as in vivo, Duroc-landrace-yorkshire swine. The conditions noted are these: 65-day-old pigs, basal diet comprising 2000 ppm test article, 28 days, mean. An excerpt: A total of 120 65-day-old Duroc-landrace-yorkshire swine with similar body weight were randomly divided into 4 groups, each with 3 replicates, half male and female, […]. The pigpen and utensils were disinfected before the test. During the period of test, pigs were kept in separate pens under the same feeding and management conditions. During the test, the test pigs were fed with food and water ad libitum, and were fed twice a day. The test groups are shown in Table 1, among which, group I was the control group, and was only fed with the basal diet; test groups II, III and IV were fed with the basal diet comprising 2000 ppm of a compound of furancarboxylic acids shown in Table 1, respectively. […] The test lasted 28 days, and the performances of the test pigs, for example, the average daily feed intake (ADFI, g/d*pig), average daily weight gain (ADG, g/d*pig) and feed conversion ratio (FCR) of each pig were counted.

The subject of assay [1] is yellow-feathered broilers. Kind of assay: Use of furancarboxylic acids in a feed for chicken (broiler performance). It is filed as in vivo. The following applies: 1-day-old broilers, basal diet comprising 1000 ppm test article, 20 days, mean. An excerpt: This experiment adopted a single-factor randomization design. 480 1-day-old broilers with an average body weight of 50 g were selected and randomly divided into 4 groups, with 6 replicates in each group, half male and female, 20 yellow-feathered broilers per replicate. The chicken house and utensils were disinfected before the test. During the period of test, broilers were kept in cages under the same feeding and management conditions. The basal diet is mainly based on corn-soybean meal, and other antioxidants and growth promoters are not added during the whole feeding. The test groups are shown in Table 2, among which, group I was the control group, and was only fed with the basal diet; test groups II, III and IV were fed with the basal diet comprising 1000 ppm of a compound of furancarboxylic acids shown in Table 2, respectively. The test lasted 20 days, and the test broilers were fed with food and water ad libitum, and were fed twice a day. Test broilers in each replicate were weighed at 21 days of age (stop feeding for 12 hours and keep water). The feed consumption of the test broilers was counted, and the average daily feed intake (ADFI, g/d*broiler), average daily weight gain (ADG, g/d*broiler) and feed conversion ratio (FCR) of each test broiler were calculated.

The next assay concerns grass carp fingerlings. Description: Use of furancarboxylic acids in a feed for fish (grass carp growth-promoting test). The following applies: 500 ppm in test feed, 8 weeks; for Weight gain: 100×(final−initial)/initial weight; for FCR (feed conversion rate): feed intake/weight gain. Format: in vivo. On the procedure:
Test fish: The test fish used were the healthy and lively grass carp fingerlings of the same year and were reared in a large cage (4×2×1.5 m^3) for 4 weeks before being used for formal breeding tests. The experimental system was a small floating cage (with size of 1.1×1.1×1.1 m^3); each small cage is equipped with a bubbling head, and bubbling 24 hours a day. The small cages and the temporary cages were placed in a test facility, a 3500 m^2 pond, the pond depth was about 1.5 m, and the pond water was fully aerated bottom water. During the test, 240 grass carps that had been starved for 1 day were randomly divided into 3 groups, each group was provided with 4 replicates, and 20 fish were placed in each replicate. Each replicate was weighed and placed into 12 cages, respectively fed with a test feed supplemented with a compound of furancarboxylic acids.
Test feed: The test feed was prepared according to the formula in Table 3, and 500 ppm of a compound of furancarboxylic acids were added to different test groups according to Table 4. The feedstuff used was ultrafinely grinded and then passed through the Jiangsu Muyang extruder to make a floating extruded feed with a particle size of 3 mm. The mold release temperature was 130° C., and 3% soybean oil was sprayed externally through the oil injection equipment, and sealed in a cool place for use.
Procedures: The experiment adopts artificial food restriction feeding, the feeding amount is adjusted once a week, the feeding level (based on the initial body weight) of each group is exactly the same, feeding twice a day (at 7:30 am and 15:00 pm), and the total feeding amount is 580 g per replicate. The test lasted 8 weeks. The water quality was monitored regularly during the test. The water temperature was 26.88±3.08° C., with DO>5.0 mg O L^−1, pH 7.8, ammonia nitrogen <0.50 mg N L^−1, and nitrite nitrogen <0.05 mg N L^−1 during the whole breeding process.
Parameter statistics: During the test, the fish in each cage were weighed as a whole 1 day of stopping feeding, and their weight gain (WG, %), feed conversion rate (FCR) and survival rate (SR, %) were calculated as follows:
Weight gain (WG, %)=100×(average final weight−average initial weight)/average initial weight;
Feed conversion rate (FCR)=feed intake/weight gain of fish;
Survival rate (SR, %)=100×number of fish at the end of the experiment/number of fish at the beginning of the experiment.

As for `O=C(O)c1coc(C(=O)O)c1` [2,4-Furandicarboxylic acid], in the assay on weaned piglets, the “ADFI (average daily feed intake)” value is 1263 g/d*pig, the “ADG (average daily weight gain)” value is 507 g/d*pig and the “FCR (feed conversion ratio)” value is on record as 2.490. For the same molecule, in assay [1], the “ADFI (average daily feed intake)” value was 36.5 g/d*broiler, the “ADG (average daily weight gain)” value is 17.4 g/d*broiler and the “FCR (feed conversion ratio)” value came out at 2.10.

Regarding `O=C(O)c1ccco1` [2-Furancarboxylic acid], in the assay on weaned piglets, the “ADFI (average daily feed intake)” value is given as 1274 g/d*pig, the “ADG (average daily weight gain)” value is 512 g/d*pig and the “FCR (feed conversion ratio)” value was found to be 2.489. In addition, in assay [1], the “ADFI (average daily feed intake)” value amounted to 35.2 g/d*broiler, the “ADG (average daily weight gain)” value is 16.9 g/d*broiler and the “FCR (feed conversion ratio)” value is 2.08. For the same molecule, in the assay with grass carp fingerlings, the Average final weight is given as 586.87 g, the “SR (survival rate)” value is on record as 82.50%, the Weight gain is 134.96% and the “FCR (feed conversion rate)” value is recorded as 1.48.

`O=C(O)c1ccoc1` [3-Furancarboxylic acid]: in the assay with weaned piglets, the “ADFI (average daily feed intake)” value came out at 1240 g/d*pig, the “ADG (average daily weight gain)” value came to 498 g/d*pig and the “FCR (feed conversion ratio)” value turned out to be 2.491. Moreover, in assay [1], the “ADFI (average daily feed intake)” value is 34.0 g/d*broiler, the “ADG (average daily weight gain)” value turned out to be 16.4 g/d*broiler and the “FCR (feed conversion ratio)” value stood at 2.07. Further, in the assay on grass carp fingerlings, the Average final weight is 589.33 g, the “SR (survival rate)” value was 83.75%, the Weight gain was determined as 138.98% and the “FCR (feed conversion rate)” value stood at 1.48.
